Test system: messenger RNAs coding for the protein CD59
Experiment: cDNA array of CD59 mRNA on standard human dermal fibroblasts
Format: cell-based
Details: for Comparision of the Control Population with the Population Exposed to the Extract (in %) / Fibroblasts Exposed to the Extract (RE): 15 micrograms/ml; for Comparision of the Control Population with the Population Exposed to the Extract (in %): control = 100; for Fibroblasts Exposed to the Extract (RE): control fibroblasts 6.1 RE
Method: The methodology used is that recommended by Clontech (Palo Alto, USA). […] The total RNA solutions were treated with DNAse I in order to remove any trace of contaminant DNA, in accordance with the supplier's recommendations. The quality of the RNA was then verified on agarose gel and the RNA solutions were adjusted to 1 μg/ml.
The next step was the purification of the messenger RNAs (mRNA) by hybridization of the poly(A) ends of the mRNAs using biotinylated oligo(dT) primers and selective capture on streptavidin beads, in accordance with the Atlaspure protocol (Clontech). ^33P-labeled DNA probes were produced by reverse transcription of the niRNAs bound to poly(dT) beads, using a pool of specific primers of the immobilized sequences on membranes (arrays), in the presence of (α^33P)-dATP. This step used the reagents and the protocol recommended by Clontech. The labeled probes were purified by chromatography on an exclusion column, and the quality and equivalence of the labeled probes was evaluated by liquid scintillation counting.
cDNA array membranes were pretreated and then the cDNAs immobilized on each membrane were hybridized (68° C., overnight) with the corresponding labeled probes. The filters were subsequently washed and placed in individual plastic bags for analysis. Analysis took place by direct quantification of the radioactivity of the spots using a Cyclone phosphoimager (Packard). The results were expressed in relative expression units (RE, radioactivity of the spot corresponding to each gene, corrected for the background noise and for the differences in intensity of labeling of the probes).
The study was carried out on standard human fibroblasts. Dermal fibroblasts were cultivated in DMEM (Life Technology, ref. 21969035) containing L-glutamine (2 mM, Life Technology, ref. 25030024), 50 IU/ml penicillin and 50 μg/ml streptomycin (Life Technology, ref. 15070063) and 1% foetal calf serum (v/v, Life Technology, ref. 10106151).
A fraction of a root extract of Panax notoginseng (San Qi) containing only the saponins was tested for its activity in accordance with the protocol described in the foregoing example by the technique of cDNA array on fibroblasts. The two principal saponins from the extract were also tested.
All the products were tested at a final concentration of 15 micrograms/ml

| Structure (SMILES) | effect on expression of messenger RNAs coding for the protein CD59 (in words) | Comparision of the Control Population with the Population Exposed to the Extract (in %) [%] | Fibroblasts Exposed to the Extract (RE) |
| --- | --- | --- | --- |
| CC(C)=CCC[C@](C)(O[C@@H]1O[C@H](CO[C@@H]2O[C@H](CO)[C@@H](O)[C@H](O)[C@H]2O)[C@@H](O)[C@H](O)[C@H]1O)[C@H]1CC[C@]2(C)[C@@H]1[C@H](O)C[C@@H]1[C@@]3(C)CC[C@H](O[C@@H]4O[C@H](CO)[C@@H](O)[C@H](O)[C@H]4O[C@@H]4O[C@H](CO)[C@@H](O)[C@H](O)[C@H]4O)C(C)(C)[C@@H]3CC[C@]12C [Rb1, Rb1 ginsenoside] | significantly modify | 277 | 13.8 |
| CC(C)=CCC[C@](C)(O[C@@H]1O[C@H](CO)[C@@H](O)[C@H](O)[C@H]1O)[C@H]1CC[C@]2(C)[C@@H]1[C@H](O)C[C@@H]1[C@@]3(C)CC[C@H](O)C(C)(C)[C@@H]3[C@@H](O[C@@H]3O[C@H](CO)[C@@H](O)[C@H](O)[C@H]3O)C[C@]12C [Rg1, Rg1 ginsenoside] | significantly modify | 277 | 16.8 |

Reference: patent publication US20040101503A1, “Use of protectin activator to enhance the skin's resistance, composition comprising such activators and selection method” (SOCIETE L'OREAL S.A., priority 2002, published 2004)
